For seven compounds, activity and IC50 results are on record in paper PMC11443518, “Undescribed Amaryllidaceae Alkaloids from Zephyranthes citrina and Their Cytotoxicity” (Journal of Natural Products, 2024).

Experiment [1] deals with nine human tumor and one nontumor cell lines. The experiment is described as follows: Cytotoxicity screening across the whole panel of cell lines. The format is cell-based. To be noted: Homo sapiens, read-out: GP value across the tested cell lines. An excerpt: Concerning the cytotoxicity of alkaloids isolated from Z. citrina, initially, Prakash and Vedanayaki investigated the MeOH extract of the bulbs for its in vitro cytotoxic activity using the MTT assay against three human cancer cell lines from different tissue origins: cervical cancer (HeLa), breast cancer (MCF-7), and oral squamous carcinoma (SCC-9). […] In this context, and to assess potential negative effects on human cell cultures, compounds 1, and 3–27 were screened in our study for cytotoxicity using a 10 μM single-dose regimen. The results were compared with those using the clinically approved antineoplastic agent doxorubicin at 1 μM. The effect on cell growth was investigated on nine human tumor and one nontumor cell lines, namely Jurkat (acute T-cell leukemia), MOLT-4 (acute lymphoblastic leukemia), A549 (lung carcinoma), HT-29 (colorectal adenocarcinoma), PANC-1 (pancreas epithelioid carcinoma), A2780 (ovarian carcinoma), HeLa (cervix adenocarcinoma), MCF-7 (breast adenocarcinoma), SAOS-2 (osteosarcoma) and MRC-5 (nontumor lung fibroblasts). […] No toxicity is valuable information, especially for compound 18, as it is a potent inhibitor of hAChE and hBChE.[27]
(§1) Selected human tumor and nontumor cell lines Jurkat (acute T-cell leukemia), MOLT-4 (acute lymphoblastic leukemia), A549 (lung carcinoma), HT-29 (colorectal adenocarcinoma), PANC-1 (pancreas epithelioid carcinoma), A2780 (ovarian carcinoma), HeLa (cervix adenocarcinoma), MCF-7 (breast adenocarcinoma), SAOS-2 (osteosarcoma) and MRC-5 (nontumor lung fibroblasts) were purchased from European Collection of Authenticated Cell Cultures (ECACC, Salisbury, UK) and cultured according to the provider’s culture method guidelines. All cell lines were maintained at 37 °C in a humidified 5% carbon dioxide and 95% air incubator. The cells in low passage number (nontumor primary cell line MRC-5 was used for a maximum of 10 passages and cancer cell lines were used for a maximum of 20 passages) and in an exponential growth phase were used for this study.
(§2) Each cell line was seeded at a previously established optimal density (1 × 10^3 to 50 × 10^3 cells per well) in a 96-well plate (TPP, Trasadingen, Switzerland) and cells were allowed to settle overnight. During screening tests for cytotoxicity, cells were treated with alkaloids at a final concentration of 10 μM for 48 h. Doxorubicin (Sigma-Aldrich, St. Louis, USA), at a concentration of 1 μM, was used as a positive control. At the end of the culture period, the WST-1 proliferation assay (Roche, Basel, Switzerland) was performed according to the manufacturer’s protocol. The absorbance was determined using a Tecan Spark microplate reader (Tecan, Männedorf, Switzerland). Each value is the mean of three independent experiments and represents the percentage of the proliferation of control, nontreated cells (100%). The growth percent (GP) value as the mean of the proliferation decrease was calculated for each cell line and derivative tested.

Experiment [2] deals with HeLa (cervix adenocarcinoma). The experiment can be described thus: WST-1 cell proliferation assay, cytotoxicity screening. It counts as cell-based. To be noted: Homo sapiens, 48 h, read-out: growth percent (GP) HeLa.
Text: as §1, with “All cell lines were maintained at 37 °C in a humidified 5% carbon dioxide and 95% air incubator.” left out
as §2

In experiment [3] the test system is Jurkat (acute T-cell leukemia). The experiment is described as above. The format is cell-based. The following applies: Homo sapiens, 48 h, read-out: growth percent (GP) Jurkat.
Text: as §1, with “All cell lines were maintained at 37 °C in a humidified 5% carbon dioxide and 95% air incubator.” left out
as §2

In experiment [4] the test system is SAOS-2 (osteosarcoma). The experiment is described as above. It counts as cell-based. To be noted: Homo sapiens, read-out: growth percent (GP) SAOS-2.
Text: as §1, with “All cell lines were maintained at 37 °C in a humidified 5% carbon dioxide and 95% air incubator.” left out
as §2

Experiment [5] deals with A2780 (ovarian carcinoma). The experiment is described as above. It counts as cell-based. To be noted: Homo sapiens, read-out: growth percent (GP) A2780.
Text: as §1, with “All cell lines were maintained at 37 °C in a humidified 5% carbon dioxide and 95% air incubator.” left out
as §2

For experiment [6], the system named is A549 (lung carcinoma). The experiment is described as above. The format is cell-based. To be noted: Homo sapiens, read-out: growth percent (GP) A549.
Text: as §1, with “All cell lines were maintained at 37 °C in a humidified 5% carbon dioxide and 95% air incubator.” left out
as §2

Experiment [7] relates to HT-29 (colorectal adenocarcinoma). The description is as above. It counts as cell-based. To be noted: Homo sapiens, read-out: growth percent (GP) HT-29.
Text: as §1, with “All cell lines were maintained at 37 °C in a humidified 5% carbon dioxide and 95% air incubator.” left out
as §2

Experiment [8] deals with PANC-1 (pancreas epithelioid carcinoma). The experiment is described as above. The format is cell-based. The following applies: Homo sapiens, read-out: growth percent (GP) PANC-1.
Text: as §1, with “All cell lines were maintained at 37 °C in a humidified 5% carbon dioxide and 95% air incubator.” left out
as §2

The subject of experiment [9] is MRC-5 (nontumor lung fibroblasts). The description is as above. It counts as cell-based. To be noted: Homo sapiens, read-out: growth percent (GP) MRC-5.
Text: as §1, with “All cell lines were maintained at 37 °C in a humidified 5% carbon dioxide and 95% air incubator.” left out
as §2

The test system of experiment [10] is MCF-7 (breast adenocarcinoma). The experiment is described as above. It counts as cell-based, human. The following applies: Homo sapiens, read-out: growth percent (GP) MCF-7.
Text: as §1, with “All cell lines were maintained at 37 °C in a humidified 5% carbon dioxide and 95% air incubator.” left out
as §2

Experiment [11] deals with MOLT-4 (acute lymphoblastic leukemia). The description is as above. The format is cell-based, human. To be noted: Homo sapiens, read-out: growth percent (GP) MOLT-4.
Text: as §1, with “All cell lines were maintained at 37 °C in a humidified 5% carbon dioxide and 95% air incubator.” left out
as §2

In experiment [12] the target is T1, hBChE (Homo sapiens, UniProt P06276).
T1 construct: purchased University Hradec Kralove, Department of Chemistry, Faculty of Science
T1 sequence (P06276 29-602): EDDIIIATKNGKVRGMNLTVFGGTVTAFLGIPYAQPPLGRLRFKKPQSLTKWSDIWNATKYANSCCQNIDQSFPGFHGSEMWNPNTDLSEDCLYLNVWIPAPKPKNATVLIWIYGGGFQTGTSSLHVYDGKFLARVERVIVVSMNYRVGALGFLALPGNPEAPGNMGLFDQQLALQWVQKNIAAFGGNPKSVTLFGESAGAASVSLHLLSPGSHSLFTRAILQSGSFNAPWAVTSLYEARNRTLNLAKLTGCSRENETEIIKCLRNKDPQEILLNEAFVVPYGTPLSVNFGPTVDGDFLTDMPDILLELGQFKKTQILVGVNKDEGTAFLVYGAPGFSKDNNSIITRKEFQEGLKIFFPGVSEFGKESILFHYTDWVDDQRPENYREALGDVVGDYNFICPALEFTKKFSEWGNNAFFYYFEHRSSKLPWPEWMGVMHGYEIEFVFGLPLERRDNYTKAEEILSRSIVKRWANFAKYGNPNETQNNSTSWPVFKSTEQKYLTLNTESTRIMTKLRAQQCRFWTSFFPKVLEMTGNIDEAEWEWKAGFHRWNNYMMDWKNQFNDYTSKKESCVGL
The experiment can be described thus: biochemical. The format is biochemical. The following applies: recombinant BChE, Ellman, 37 °C. As to the method:
(§3) The hAChE and hBChE activities were determined using a modified method of Ellman, as described by Hrabinova and co-workers against recombinant AChE and recombinant BChE (purchased from University Hradec Kralove, Department of Chemistry, Faculty of Science).[43] Other used chemicals were phosphate buffer solution (PBS, pH = 7.4), 5,5′-dithio-bis(2-nitrobenzoic) acid (Ellman’s reagent, DTNB), acetylthiocholine iodide (ATChI), butyrylthiocholine iodide (BTChI), and dimethyl sulfoxide (DMSO) (all chemicals were purchased from Sigma-Aldrich, Prague, Czech Republic).
(§4) Briefly, 8.3 μL of the corresponding enzyme, 283 μL of 5 mM DTNB, and 8.3 μL of the sample dilution in DMSO in different concentrations were added to the microplate. These solutions were incubated for 5 min at 37 °C. Then, 33.3 μL of 10 mM substrate (ATChI or BTChI) was added to initiate the reaction, and the whole reaction mixture was incubated for 2 min at 37 °C. […] This difference after 1 min was used to calculate the percentage of inhibitory potential of the given derivative. Each measurement was repeated three times for every concentration of the compound. 8.3 μL DMSO was used as a blank. The % inhibition was calculated according to the following formula: [drawing 3] where ΔABl is the increase of absorbance of the blank sample and ΔASa is the increase of absorbance of the measured sample.
A general note: Ellman's reagent forms a yellow product with free thiols.

Experiment [13] addresses T2, hAChE (Homo sapiens, UniProt P22303).
T2 construct: purchased University Hradec Kralove, Department of Chemistry, Faculty of Science
The experiment is described as follows: biochemical. It counts as biochemical. The following applies: recombinant AChE, Ellman, 37 °C. Here is the method: as §3, §4

[14] abbreviates: 10 μM single dose, 48-h interval, all tested cell lines.
Setting [15] is: c = 10 μM, % of proliferation of nontreated control.
Where [16] appears, read: SAOS-2, c = 10 μM, 48 h, % of proliferation of nontreated control.
The mark [17] stands for this setting: A2780, c = 10 μM, 48 h, % of proliferation of nontreated control.
Where [18] appears, read: A549, c = 10 μM, 48 h, % of proliferation of nontreated control.
The mark [19] stands for this setting: HT-29, c = 10 μM, 48 h, % of proliferation of nontreated control.
Where [20] appears, read: PANC-1, c = 10 μM, 48 h, % of proliferation of nontreated control.
Setting [21] is: MRC5, c = 10 μM, 48 h, % of proliferation of nontreated control.
The mark [22] stands for this setting: MCF7, c = 10 μM, 48 h, % of proliferation of nontreated control.
Where [23] appears, read: MOLT-4, c = 10 μM, 48 h, % of proliferation of nontreated control.

Several values for one entry are separate records, joined by “and”; a condition that tells them apart may be missing. Equal entries are not always repeated. Where two headings read alike, the source gives them in different places.

T2 sequence (P22303 32-614): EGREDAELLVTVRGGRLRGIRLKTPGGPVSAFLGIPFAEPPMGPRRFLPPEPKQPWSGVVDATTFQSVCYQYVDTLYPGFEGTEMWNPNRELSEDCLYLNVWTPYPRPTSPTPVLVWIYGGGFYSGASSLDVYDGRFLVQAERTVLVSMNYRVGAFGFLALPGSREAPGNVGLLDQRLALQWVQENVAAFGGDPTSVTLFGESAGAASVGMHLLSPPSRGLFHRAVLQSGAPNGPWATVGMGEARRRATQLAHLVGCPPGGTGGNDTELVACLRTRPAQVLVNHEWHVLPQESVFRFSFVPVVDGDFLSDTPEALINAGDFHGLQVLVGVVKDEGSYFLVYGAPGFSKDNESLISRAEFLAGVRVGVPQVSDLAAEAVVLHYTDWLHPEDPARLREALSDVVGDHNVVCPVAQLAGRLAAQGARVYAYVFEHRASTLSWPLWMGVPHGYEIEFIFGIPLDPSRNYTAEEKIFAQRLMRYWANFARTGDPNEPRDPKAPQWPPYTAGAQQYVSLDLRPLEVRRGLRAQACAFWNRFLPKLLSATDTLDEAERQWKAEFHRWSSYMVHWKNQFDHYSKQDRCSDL

As for `COc1cc2c(c(O)c1OC)[C@@]13CC[C@H](O)C[C@@H]1N(CC3)C2O` (stereo partly shown) [Compound 8, zephyranine C], the activity at 10 µM in [1] (48 h) was more than 50%; in experiment [2], 117%; in [3], 109%; in experiment [4] (SAOS-2, 48 h), 111%; in [5] (A2780, 48 h), 105%; in experiment [6] (A549, 48 h), 117%. Moreover, the activity at 10 µM in [7] (HT-29, 48 h) was 121%; in [8] (PANC-1, 48 h), 110%; in experiment [9] (MRC5, 48 h) it was 100%; in [10] (MCF7, 48 h), 112%; in experiment [11] (MOLT-4, 48 h), 98%. In addition, the IC50 in [12] and in experiment [13] was more than 100 µM each time.
Turning to `COc1cc2c(cc1OC)[C@@H]1[C@H](O)[C@@H](OC)[C@H](O)C3=CCN(C2=O)[C@H]31` [Compound 2, 6-oxonarcissidine], the IC50 in experiment [12] and in experiment [13] was more than 100 µM in each case.
In the case of `COc1cc2c(cc1OC)[C@@]13C=C[C@@H](OC)C[C@@H]1N(C2)C[C@@H]3O` [Compound 1, zephycitrine], the activity at 10 µM in experiment [1] (setting [14]) is more than 50%; in experiment [2] (setting [15]), 97%; in experiment [3] (setting [15]) it was 111%; in experiment [4] (setting [16]) it was 101%; in experiment [5] (setting [17]) it was 98%; in experiment [6] (setting [18]), 100%. Besides, the activity at 10 µM in experiment [7] (setting [19]) was determined as 101%; in experiment [8] (setting [20]), 102%; in experiment [9] (setting [21]), 107%; in experiment [10] (setting [22]) it was 106%; in experiment [11] (setting [23]) it was 99%. Further, the IC50 in experiment [12] and in experiment [13] was more than 100 µM in each case.
Turning to `CCO[C@H]1c2cc(OC)c(OC)cc2[C@@]23CC[C@H](OC)C[C@@H]2N1CC3` [Compound 4, 6-O-ethylzephyranine E], the activity at 10 µM in experiment [1] (48 h) is more than 50%; in experiment [2] it was 109%; in [3], 90%; in [4] (SAOS-2, 48 h), 98%; in experiment [5] (A2780, 48 h), 85%; in experiment [6] (A549, 48 h), 100%. Moreover, the activity at 10 µM is 91% in experiment [7] (HT-29, 48 h); 88% in [8] (PANC-1, 48 h); 99% in experiment [9] (MRC5, 48 h); 96% in experiment [10] (MCF7, 48 h); 101% in [11] (MOLT-4, 48 h). The IC50 in experiment [12] and in [13] was more than 100 µM throughout.
On to `COc1ccc2c3c1O[C@H]1C[C@@H](O)CC[C@@]31CCNC2` [Compound 7, norlycoramine], for which the activity at 10 µM in [1] (48 h) is more than 50%; in experiment [2] it was 98%; in [3] it was 103%; in [4] (SAOS-2, 48 h), 97%; in experiment [5] (A2780, 48 h) it was 97%; in [6] (A549, 48 h), 103%. Also, the activity at 10 µM was 100% in experiment [7] (HT-29, 48 h); 103% in experiment [8] (PANC-1, 48 h); 98% in experiment [9] (MRC5, 48 h); 97% in [10] (MCF7, 48 h); 99% in experiment [11] (MOLT-4, 48 h). The concentration for half-maximal inhibition (IC50) in experiment [12] is more than 100 µM; in [13], > 100 µM and 155 µM.
For `COc1cc2c(c(OC)c1OC)[C@@H](O)O[C@@H]1CC=C3CCN(C)[C@H]3[C@H]21` [Compound 21], the activity at 10 µM in experiment [1] (setting [14]) was more than 50%; in experiment [2] (setting [15]), 112%; in [3] (setting [15]) it was 91%; in experiment [4] (setting [16]) it was 105%; in [5] (setting [17]) it was 95%; in experiment [6] (setting [18]), 101%. Moreover, the activity at 10 µM in experiment [7] (setting [19]) came to 83%; in [8] (setting [20]), 90%; in experiment [9] (setting [21]), 101%; in experiment [10] (setting [22]), 92%; in experiment [11] (setting [23]), 93%.
For `COc1cc2c(cc1O)CN1CC[C@@]23C=CC(O)C[C@H]13` (stereo partly shown) [Compound 16], the activity at 10 µM in experiment [1] (48 h) is more than 50%; in [2], 114%; in experiment [3] it was 102%; in experiment [4] (SAOS-2, 48 h), 98%; in experiment [5] (A2780, 48 h), 101%; in [6] (A549, 48 h) it was 106%. For the same compound, the activity at 10 µM worked out at 103% in experiment [7] (HT-29, 48 h); 101% in experiment [8] (PANC-1, 48 h); 97% in experiment [9] (MRC5, 48 h); 105% in experiment [10] (MCF7, 48 h); 110% in experiment [11] (MOLT-4, 48 h).

What is called IC50 is the concentration that inhibits the measured activity by half.
